Assay results reported in US20240083857A1, “2-Methyl-Quinazolines” (Bayer Pharma Aktiengesellschaft, priority 2017, published 2024).
Read-outs that look alike come from different tables or passages of the source.

Columns and labels:
[1] = target: K-Ras^G12C : hSOS1 interaction (Homo sapiens, UniProt Q07889); assay: Biochemical assay 1: K-Ras^G12C interaction assay with hSOS1 (HTRF); format: binding; conditions: for inhibition at 20 µM: read-out: Assay 1 (KRAS-SOS Interaction) activity expressed as % inhibition at 20 μM; for IC50: E-notation values, unit inferred, read-out: Assay 1 (KRAS-SOS interaction) IC50
[2] = target: human SOS1 (loading of human K-Ras^G12C-GDP with fluorescent GTP-analog) (Homo sapiens, UniProt Q07889); assay: Biochemical assay 3: K-Ras^G12C activation assay by hSOS1 (HTRF); conditions: for inhibition at 20 µM: read-out: Assay 3 (KRAS-Activation by SOS no GTP) activity expressed as % inhibition at 20 μM
[3] = E-notation values, unit inferred, read-out: Assay 3 (KRAS-Activation) IC50

Compound	inhibition at 20 µM [1] [%]	inhibition at 20 µM ([2]; no GTP) [%]	IC50 [1] [nM]	IC50 [2, 3] [nM]	IC50 ([2]; no GTP, read-out: Assay 3 (KRAS-Activation by SOS no GTP) activity expressed as IC50) [nM]
COc1cc2nc(C)nc(NC(C)c3ccc(-c4ccc(CNC(=O)OC(C)(C)C)o4)s3)c2cc1OC (stereo not shown) [Example 236, tert-butyl {[5-(5-{1-[(6,7-dimethoxy-2-methylquinazolin-4-yl)amino]ethyl}thiophen-2-yl)furan-2-yl]methyl}carbamate]	37	17			
Cc1nc(NC(C)c2ccc(-c3ccccc3CN(C)C)s2)c2cc(N3CCN(Cc4ccccc4)C(=O)C3)ccc2n1 (stereo not shown) [Example 458, 1-benzyl-4-(4-{[1-(5-{2-[(dimethylamino)methyl]phenyl}thiophen-2-yl)ethyl]amino}-2-methylquinazolin-6-yl)piperazin-2-one]			48	45.5	
COC(=O)C(C)(C)c1ccccc1-c1ccc(C(C)Nc2nc(C)nc3cc(OC)c(OC)cc23)s1 (stereo not shown) [Example 436, methyl 2-[2-(5-{1-[(6,7-dimethoxy-2-methylquinazolin-4-yl)amino]ethyl}thiophen-2-yl)phenyl]-2-methylpropanoate]			2390	1770	
COc1cc2nc(C)nc(NC(C)c3ccc(-c4ccc(O)nc4)s3)c2cc1OC (stereo not shown) [Example 395, 5-(5-{1-[(6,7-dimethoxy-2-methylquinazolin-4-yl)amino]ethyl}thiophen-2-yl)pyridin-2-ol]			984	1020	
COc1cc2nc(C)nc(NC(C)c3cc(C)c(-c4ccc(F)cc4CN)s3)c2cc1OC (stereo not shown) [Example 399, N-(1-{5-[2-(aminomethyl)-4-fluorophenyl]-4-methyl-2-thienyl}ethyl)-6,7-dimethoxy-2-methylquinazolin-4-amine]			333	296	
Cc1nc(N[C@H](C)c2cccc(Cl)c2)c2cc(-c3cnn(C)c3)ccc2n1 [Example 406, N-[(1R)-1-(3-chlorophenyl)ethyl]-2-methyl-6-(1-methyl-1H-pyrazol-4-yl)quinazolin-4-amine]			727	855	
COc1cc2nc(C)nc(NC(C)c3ccc(-c4c(Cl)cccc4CN)s3)c2cc1OC (stereo not shown) [Example 409, N-[1-{5-[2-(aminomethyl)-6-chlorophenyl]thiophen-2-yl}ethyl]-6,7-dimethoxy-2-methylquinazolin-4-amine]			49.2	31.6	
COc1cc2nc(C)nc(NC(C)c3ccc(-n4ccc(CCO)n4)o3)c2cc1OC (stereo not shown) [Example 226, 2-[1-(5-{1-[(6,7-dimethoxy-2-methylquinazolin-4-yl)amino]ethyl}furan-2-yl)-1H-pyrazol-3-yl]ethanol]	43	24			
COc1cc2nc(C)nc(NC(C)c3sc(-c4ccccc4CN)cc3Cl)c2cc1OC (stereo not shown) [Example 437, N-[1-{5-[2-(aminomethyl)phenyl]-3-chlorothiophen-2-yl}ethyl]-6,7-dimethoxy-2-methylquinazolin-4-amine]			145	160	
CC(=O)NCCNc1ccc2nc(C)nc(NC(C)c3ccc(-c4ccccc4CN(C)C)s3)c2c1 (stereo not shown) [Example 427, N-{2-[(4-{[1-(5-{2-[(dimethylamino)methyl]phenyl}thiophen-2-yl)ethyl]amino}-2-methylquinazolin-6-yl)amino]ethyl}acetamide]			58.4	73.9	
COc1cc2nc(C)nc(NC(C)c3ccc(-c4ccccc4C(O)C(C)C)s3)c2cc1OC (stereo not shown) [Example 379, 1-[2-(5-{1-[(6,7-dimethoxy-2-methylquinazolin-4-yl)amino]ethyl}thiophen-2-yl)phenyl]-2-methylpropan-1-ol]			568	1630	
Cc1nc(NC(C)c2ccc(Br)s2)c2cc(NCCN3CCOCC3)ccc2n1 (stereo not drawn) [Example 425, N4-[l-(5-bromo-2-thienyl)ethyl]-2-methyl-N6-[2-(morpholin-4-yl)ethyl]quinazoline-4,6-diamine]			5820	11200	
C#CC(O)c1ccccc1-c1ccc(C(C)Nc2nc(C)nc3cc(OC)c(OC)cc23)s1 (stereo not shown) [Example 378, 1-[2-(5-{1-[(6,7-dimethoxy-2-methylquinazolin-4-yl)amino]ethyl}thiophen-2-yl)phenyl]prop-2-yn-1-ol]			430	1450	
Cc1nc(NC(C)c2ccc(-c3ccccc3CN(C)C)s2)c2cc(N3CCN(C)C(=O)C3)ccc2n1 (stereo not shown) [Example 435, 4-(4-{[1-(5-{2-[(dimethylamino)methyl]phenyl}thiophen-2-yl)ethyl]amino}-2-methylquinazolin-6-yl)-1-methylpiperazin-2-one]			84.4	68.6	
COc1cc2nc(C)nc(NC(C)c3ccc(-c4ccc(F)cc4CNC(=O)c4cc5ccccc5[nH]4)s3)c2cc1OC (stereo not shown) [Example 296, N-[2-(5-{1-[(6,7-dimethoxy-2-methylquinazolin-4-yl)amino]ethyl}thiophen-2-yl)-5-fluorobenzyl]-1H-indole-2-carboxamide]	34				11800
Cc1nc(NC(C)c2ccc(Br)s2)c2cc(N3CCN(Cc4cccnc4)CC3)ccc2n1 (stereo not shown) [Example 424, N-[1-(5-bromothiophen-2-yl)ethyl]-2-methyl-6-[4-(pyridin-3-ylmethyl)piperazin-1-yl]quinazolin-4-amine]			1590	3760	
Cc1ccc2nc(C)nc(N[C@H](C)c3cccc(Cl)c3)c2c1 [Example 404, N-[(1R)-1-(3-chlorophenyl)ethyl]-2,6-dimethylquinazolin-4-amine]			4680	9300	
